Columns and labels:
T. b. brucei GUTat3.1 = experiment: In vitro trypanocidal activity (CellTiter-Glo, 3 days); assay type: cell-based; settings: Trypanosoma brucei, 72 h, bloodstream forms, 37 °C, mean ± SD of triplicate, read-out: Trypanocidal Activity IC50 ± SD, Tbb GUTat3.1
Experimental: (§1) The bloodstream forms of T. b. brucei GUTat3.1, T. b. rhodesiense IL1501, T. b. rhodesiense Chirundu, T. b. gambiense IL1922, and T. evansi Tansui strains were propagated in culture at 37 °C, whereas the T. congolense IL3000 strain was propagated at 33 °C in Hirumi’s modified Iscove’s medium-9, supplemented with 20% heat-inactivated fetal bovine serum. The bloodstream form cultures were maintained by replacing the entire culture supernatant with fresh medium, every other day.
(§2) The trypanocidal activity and cytotoxicity of nitrofurantoin analogs were evaluated according to previous reports, with some modifications. In brief, bloodstream forms adjusted at 2.5 × 10^3 cells/mL (T. b. brucei GUTat3.1, T. b. gambiense IL1922, and T. b. rhodesiense IL1501), 1 × 10^4 cells/mL (T. evansi Tansui and T. b. rhodesiense Chirundu), and 1 × 10^5 cells/mL (T. congolense IL3000), were cultivated in Nunc® MicroWell 96-well optical bottom plates (Thermo Fisher Scientific, Waltham, MA, USA) and exposed to various analogs at seven different concentrations for 3 days, in an incubator at 37 °C (33 °C for T. congolense IL3000). […] Twenty-five microliters of the Cell-TiterGlo® (Promega, Madison, WI, USA) reagent was added into each well, and bioluminescence was measured using a GloMax®-Multi+Detection System plate reader (Promega).
(§3) The half maximum inhibitory concentration (IC50) of each analog in trypanosomes and the Madin–Darby bovine kidney cells was calculated using the GraphPad Prism version 8 software (GraphPad, Inc., San Diego, CA, USA).

T. b. gambiense IL1922 = experiment: as above; assay type: cell-based; settings: Trypanosoma brucei, 72 h, bloodstream forms, 37 °C, mean ± SD of triplicate, read-out: Trypanocidal Activity IC50 ± SD, Tbg IL1922
Experimental: as §1, §2, §3

T. b. rhodesiense IL1501 = experiment: as above; assay type: cell-based; settings: Trypanosoma brucei, 72 h, bloodstream forms, 37 °C, mean ± SD of triplicate, read-out: Trypanocidal Activity IC50 ± SD, Tbr IL1501
Experimental: as §1, §2, §3

[1] = system: T. b. rhodesiense Chirundu; experiment: as above; assay type: cell-based; settings: Trypanosoma brucei, 72 h, bloodstream forms, 37 °C, mean ± SD of triplicate, read-out: Trypanocidal Activity IC50 ± SD, Tbr Chirundu
Experimental: as §1, §2, §3

T. congolense IL3000 [2] = experiment: as above; assay type: cell-based; settings: Trypanosoma congolense, 72 h, bloodstream forms, 33 °C, mean ± SD of triplicate, read-out: Trypanocidal Activity IC50 ± SD, Tc IL3000
Experimental: as §1, §2, §3

T. evansi Tansui = experiment: as above; assay type: cell-based; settings: 72 h, bloodstream forms, 37 °C, mean ± SD of triplicate, read-out: Trypanocidal Activity IC50 ± SD, Tev Tansui
Experimental: as §1, §2, §3

mycobacterial = system: mycobacterial; set-up: method as in PMID 32044516; settings: more potent than nitrofurantoin; cited from earlier work
[3] = Cytotoxicity (Cell Counting Kit-8, 3 days); assay type: cell-based, bovine; settings: bovine, Madin–Darby bovine kidney (MDBK) cells, 37 °C, mean ± SD of triplicate
Experimental: (§4) Additionally, Madin–Darby bovine kidney cells were cultivated (density, 1 × 10^4 cells/mL) in a 96-well cell culture plate (Thermo Fisher Scientific) with the analogs, at seven different concentrations for 3 days at 37 °C. Next, 10 µl of the Cell Counting Kit-8 solution (Dojindo, Kumamoto, Japan) was added into each well […] 4 h of incubation. Absorbance was measured at 450 nm using a GloMax®-Multi+Detection System plate reader.
as §3

T. congolense IL3000 [4] = experiment: In vivo treatment efficacy in mice infected with T. congolense; set-up: species or system BALB/c mice; settings: for time by which all mice died because of high parasitemia: intraperitoneal injection at 0.1 mg/kg; for time by which all mice died because of high parasitemia / time by which all mice succumbed to high parasite levels: 7 consecutive days from 2 dpi
Experimental: Healthy female 8-week-old BALB/c mice (CLEA Japan, Inc., Tokyo, Japan) were used in this study. All animals had ad libitum access to normal chow and water.
The virulent T. congolense IL3000 strain was propagated in a mouse and used for infection. The parasites were passaged once in a mouse before the experiment. The experimental mice were intraperitoneally infected with 100 μL of T. congolense in phosphate-buffered saline, containing 10% glucose at 1 × 10^3 cells/mouse. First, the mice were randomly divided into six groups of three mice, each as follows. Group I (no treatment), mice were not infected and were only treated with solvent (10% dimethyl sulfoxide–phosphate–buffered saline). Group II received 3.5 mg/kg of diminazene aceturate treatment. Groups III (9), IV (11), V (12), and VI were treated with nitrofurantoin and the mice were infected and intraperitoneally treated with 0.1 mg/kg of the compound.
In the second experiment, the mice were randomly divided into six groups of three mice, each as follows—group I received no treatment; group II received 3.5 mg/kg of diminazene aceturate treatment; and groups III (9), IV (11), V (12), and VI received nitrofurantoin—the mice were infected and orally treated with 10 mg/kg of the compound.
Treatment was initiated at 2 days post-infection (dpi) and continued for seven consecutive days. The treatments were freshly prepared each day. Parasitemia was observed using a cell counting chamber until 14 dpi.

[5] = system: Madin–Darby bovine kidney cells; experiment: Cytotoxicity (Cell Counting Kit-8, 3 days); assay type: cell-based; settings: MDBK cells, 37 °C, mean ± SD of triplicate
Experimental: as §4, §3

[6] = system: six species/strains of animal and human trypanosomes; experiment: In vitro trypanocidal activity, summary over all strains; assay type: cell-based; settings: over the six trypanosome species/strains
Experimental: as §1
The trypanocidal activity and cytotoxicity of nitrofurantoin analogs were evaluated according to previous reports, with some modifications. […] Twenty-five microliters of the Cell-TiterGlo® (Promega, Madison, WI, USA) reagent was added into each well, and bioluminescence was measured using a GloMax®-Multi+Detection System plate reader (Promega).
as §3

[7] = after both oral (10 mg/kg) and intraperitoneal (0.1 mg/kg) administration
[8] = oral, 10 mg/kg, T. congolense-infected mice

SMILES | IC50 (T. b. brucei GUTat3.1) | IC50 (T. b. gambiense IL1922) | IC50 (T. b. rhodesiense IL1501) | IC50 [1] | IC50 (T. congolense IL3000 [2]) | IC50 (T. evansi Tansui) | anti-mycobacterial potency relative to nitrofurantoin (mycobacterial) | IC50 at 3 days [3] | treatment efficacy against T. congolense infection in vivo (T. congolense IL3000 [4]; [7]) | time by which all mice died because of high parasitemia (T. congolense IL3000 [4]; T. congolense-infected mice) | time by which all mice succumbed to high parasite levels (T. congolense IL3000 [4]; [8]) | IC50 [5] | IC50 [6] | treatment efficacy against T. congolense infection in vivo (T. congolense IL3000 [4]; oral treatment, 10 mg/kg) | mice surviving until end of the experiment period (T. congolense IL3000 [4]; oral, 10 mg/kg, three mice per group, observed until 14 dpi) | parasitemia (T. congolense IL3000 [4]; group II, 3.5 mg/kg, T. congolense-infected mice)
CCCCCCCCN1C(=O)CN(/N=C/c2ccc([N+](=O)[O-])o2)C1=O [Analog 8, (E)-1-([(5-Nitrofuran-2-yl)methylene]amino)-3-octylimidazolidine-2,4-dione] | 1890 ± 690 nM | 1400 ± 730 nM | 1380 ± 820 nM | 39 ± 8.4 nM | 30 ± 5 nM | 810 ± 82 nM | 30 fold | 84.7 ± 8.99 µM |  |  |  |  |  |  |  | 
CCCCCCCCCN1C(=O)CN(/N=C/c2ccc([N+](=O)[O-])o2)C1=O [Analog 9, (E)-1-([(5-Nitrofuran-2-yl)methylene]amino)-3-nonylimidazolidine-2,4-dione] | 570 ± 220 nM | 440 ± 170 nM | 600 ± 540 nM | 17 ± 6.7 nM | 10 ± 3.5 nM | 270 ± 25 nM |  | 251 ± 58.3 µM | no treatment efficacy | ≤ 9 dpi | ≤ 9 dpi |  |  |  |  | 
CCCCCCCCCCCN1C(=O)CN(/N=C/c2ccc([N+](=O)[O-])o2)C1=O [Analog 11, (E)-1-([(5-Nitrofuran-2-yl)methylene]amino)-3-undecylimidazolidine-2,4-dione] | 330 ± 120 nM | 330 ± 120 nM | 240 ± 130 nM | 21 ± 9.4 nM | 11 ± 3.5 nM | 160 ± 14 nM |  | > 246 µM | no treatment efficacy | ≤ 9 dpi | ≤ 9 dpi | > 255 µM | < 340 nM |  |  | 
CCCCCCCCCCCCN1C(=O)CN(/N=C/c2ccc([N+](=O)[O-])o2)C1=O [Analog 12, (E)-3-Dodecyl-1-([(5-nitrofuran-2-yl)methylene]amino)imidazolidine-2,4-dione] | 340 ± 120 nM | 230 ± 130 nM | 260 ± 110 nM | 31 ± 11 nM | 12 ± 4.5 nM | 200 ± 17 nM |  | > 246 µM | no treatment efficacy | ≤ 9 dpi | ≤ 9 dpi |  | < 340 nM |  |  | 
O=C1CN(/N=C/c2ccc([N+](=O)[O-])o2)C(=O)N1 [Nitrofurantoin] | 1420 ± 150 nM | 1620 ± 280 nM | 1420 ± 250 nM |  | 360 ± 43 nM | 1960 ± 500 nM |  |  |  | ≤ 9 dpi |  |  |  | partial efficacy | two of three | 
CC(=O)NCC(=O)O.CC(=O)NCC(=O)O.N=C(N)c1ccc(N=NNc2ccc(C(=N)N)cc2)cc1 [diminazene aceturate, reference compound] |  |  |  |  |  |  |  |  |  |  |  |  |  |  |  | not observed
